# Assay results taken from US10227324B2 (Shanghai Haiyan Pharmaceutical Technology Co., Ltd., priority 2014, dated 2019).
# Read-outs that look alike come from different tables or passages of the source.
# Assays:
# [1] = tested on: NIH3T3 cells; experiment: Cytotoxicity by MTT assay, NIH3T3; type: cell-based; conditions: Mus musculus, NIH3T3, 72 h, cytotoxicity class, read-out: NIH3T3 cell (IC50/nM)
# Protocol: The MTT assay procedure and steps were carried out as well known to those skilled in the art, and all the reagents used in the methods were commercially available.
# (§1) The cells in logarithmic growth phase were digested with 0.25% EDTA trypsin (Gibco, 25200-056) and resuspended in fresh medium. 90 μL of the cell suspension was inoculated into a 96-well cell culture plate (BD Faclon 353072) with a suitable cell density and cultured at 37° C. under 5% CO2. After the cells adhered, 10 μL of the test compound at different concentrations (0.0046-10 μM, 8 concentration points) was added and incubated for another 72 h. 10 μL of MTT (5 mg/mL PBS solution) (Sigma, M5655) was added to react for 4 h. The absorbance at 492 nm was measured by using Thermo Scientific Multiskan MK3 microplate reader and IC50 was calculated using XLFIT 5.0 software (UK IDBS).
# [2] = molecular target: T1, PI3K-α kinase (p110α/p85α) (Homo sapiens, UniProt P42336); experiment: Determination of PI3K kinase activity (ADP Transcreener, fluorescence polarization); type: biochemical; conditions: ATP 10 μM
# T1 construct: purchased Invitrogen PV4788
# Protocol: (§2) The inhibition of PI3K kinase activity by the compound to be tested was determined by the following method. The working concentration of each component in the 25 μL enzyme reaction system was: p110α/p85α 3 ng (or p110β/p85α 60 ng, or p110δ/p85α 90 ng, or p110γ 100 ng), ATP 10 μM, PIP2: PS (Invitrogen PV5100) 30 μM and the DMSO concentration was 2% after addition of the compound to be tested.
# (§3) At the time of the test, the compound to be tested was dissolved in dimethylsulfoxide (DMSO) according to the desired concentration of the experiment. The compound to be tested was gradiently diluted 3 times (0.00046-1 μM, 8 concentration points) with 10% DMSO. 5 μL of the compound to be tested was added to each well of a 96-well plate (Greiner 675076) in duplicate. […] 10 μL of ATP/PIP2: PS and 10 μL of the PI3K enzyme working solution were added to each well in a 96-well plate. The plate was shaken and mixed uniformly, and then incubated at 25° C. for 1 hour. At the same time, ADP and ATP (0.01 μM, 0.02 μM, 0.04 μM, 0.06 μM, 0.08 μM[…], 0.1 μM, 0.25 μM, 0.5 μM, 1 μM, 2 μM, 5 μM, 10 μM, 12 concentration points) were diluted with buffer to set the standard curve. After completion of the enzyme reaction, 25 μL of ADP assay solution (1% 100×ADP tracer, 0.79% ADP antibody and 10% 10× reaction stop solution) was added and incubated at 25° C. for 1 hour. Fluorescence polarization value [mP] of each well was measured with a Perkin Elmer Victor X5 Fluorescent Microplate. The ADP concentration [ADP] was calculated from the ADP/ATP standard curve and the IC50 values were calculated using the XLFit software.
# [3] = tested on: MCF-7 cells; experiment: Cell inhibitory activity detected by MTT assay, MCF-7; type: cell-based; conditions: Homo sapiens, MCF7, 72 h, read-out: MCF-7 cell (IC50/nM), cell growth inhibition
# Protocol: as §1, with “The MTT assay procedure and steps were carried out as well known to those skilled in the art, and all the reagents used in the methods were commercially available. The cells” for “The cells”, “(UK IDBS). MCF-7 cell culture medium: DMEM medium (Hyclone SH30243.01B+10% FBS (Gibco 10099-141)” for “(UK IDBS).”
# [4] = tested on: T47D cells; experiment: Cell inhibitory activity detected by MTT assay, T47D; type: cell-based; conditions: Homo sapiens, T47D, 72 h, read-out: T47D cell (IC50/nM), cell growth inhibition
# Protocol: as §1, with “The MTT assay procedure and steps were carried out as well known to those skilled in the art, and all the reagents used in the methods were commercially available. The cells” for “The cells”, “(UK IDBS). T47D cell culture medium: RPMI-1640 medium (Hyclone SH30809.01B)+10% FBS (Gibco 10099-141)” for “(UK IDBS).”
# [5] = molecular target: T2, PI3K-γ kinase (p110γ) (Homo sapiens, UniProt P48736); experiment: Determination of PI3K kinase activity (ADP Transcreener, fluorescence polarization); type: biochemical; conditions: Table 1; ATP 10 μM; read-out: PI3K-γ/nM (IC50 of inhibitory activity against PI3K kinase)
# T2 construct: purchased Invitrogen PV4786
# Protocol: The PI3K kinase used in the experiment: p110α/p85α (Invitrogen PV4788), p110β/p85α (Millipore 14-603), p110δ/p85α (Millipore 14-604M), and p110γ (Invitrogen PV4786).
# as §2
# as §3, with “duplicate. 2.5× buffer was prepared and 1 μL of DTT (Millipore 20-265) was added to each 800 μL of 2.5× buffer.” for “duplicate.”
# [6] = molecular target: T3, PI3K-β kinase (p110β/p85α) (Homo sapiens, UniProt P42338); experiment: as above; type: biochemical; conditions: Table 1; ATP 10 μM; read-out: PI3K-β/nM (IC50 of inhibitory activity against PI3K kinase)
# T3 construct: purchased Millipore 14-603
# Protocol: as §2, §3
# [7] = molecular target: T4, PI3K-δ kinase (p110δ/p85α) (Homo sapiens, UniProt O00329); experiment: as above; type: biochemical; conditions: Table 1; ATP 10 μM; read-out: PI3K-δ/nM (IC50 of inhibitory activity against PI3K kinase)
# T4 construct: purchased Millipore 14-604M
# Protocol: as §2, §3
# [8] = Table 2, read-out: PI3K-α/nM (IC50 of inhibitory activity against PI3K-α kinase)
# [9] = Table 1, read-out: PI3K-α/nM (IC50 of inhibitory activity against PI3K kinase)
# T4 sequence (O00329 whole entry): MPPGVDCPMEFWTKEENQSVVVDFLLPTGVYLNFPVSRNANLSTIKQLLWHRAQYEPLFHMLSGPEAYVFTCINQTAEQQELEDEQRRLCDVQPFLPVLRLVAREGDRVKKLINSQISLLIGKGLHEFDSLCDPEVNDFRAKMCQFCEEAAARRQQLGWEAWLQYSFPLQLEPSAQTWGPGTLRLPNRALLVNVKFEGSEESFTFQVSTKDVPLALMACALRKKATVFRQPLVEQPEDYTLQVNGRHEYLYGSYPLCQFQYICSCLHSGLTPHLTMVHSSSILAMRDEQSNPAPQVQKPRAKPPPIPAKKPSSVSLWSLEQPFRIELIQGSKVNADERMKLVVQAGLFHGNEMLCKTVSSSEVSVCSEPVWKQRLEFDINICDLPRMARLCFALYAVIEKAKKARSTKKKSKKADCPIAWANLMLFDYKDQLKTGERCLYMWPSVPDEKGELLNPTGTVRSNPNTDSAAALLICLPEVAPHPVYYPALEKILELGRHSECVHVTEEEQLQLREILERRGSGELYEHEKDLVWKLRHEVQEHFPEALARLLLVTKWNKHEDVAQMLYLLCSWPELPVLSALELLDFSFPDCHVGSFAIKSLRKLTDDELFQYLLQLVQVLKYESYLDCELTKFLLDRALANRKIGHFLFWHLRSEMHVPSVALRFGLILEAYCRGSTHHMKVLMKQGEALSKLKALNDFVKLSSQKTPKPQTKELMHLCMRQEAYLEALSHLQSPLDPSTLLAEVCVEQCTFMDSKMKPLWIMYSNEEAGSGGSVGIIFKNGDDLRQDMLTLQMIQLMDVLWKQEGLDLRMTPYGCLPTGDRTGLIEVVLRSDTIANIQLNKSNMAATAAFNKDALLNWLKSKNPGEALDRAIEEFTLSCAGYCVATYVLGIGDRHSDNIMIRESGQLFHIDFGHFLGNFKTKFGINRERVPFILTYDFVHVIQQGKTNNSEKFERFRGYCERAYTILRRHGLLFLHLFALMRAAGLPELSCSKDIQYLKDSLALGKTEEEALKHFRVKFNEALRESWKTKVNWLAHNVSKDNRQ
# T4 sequence (P27986 whole entry partner): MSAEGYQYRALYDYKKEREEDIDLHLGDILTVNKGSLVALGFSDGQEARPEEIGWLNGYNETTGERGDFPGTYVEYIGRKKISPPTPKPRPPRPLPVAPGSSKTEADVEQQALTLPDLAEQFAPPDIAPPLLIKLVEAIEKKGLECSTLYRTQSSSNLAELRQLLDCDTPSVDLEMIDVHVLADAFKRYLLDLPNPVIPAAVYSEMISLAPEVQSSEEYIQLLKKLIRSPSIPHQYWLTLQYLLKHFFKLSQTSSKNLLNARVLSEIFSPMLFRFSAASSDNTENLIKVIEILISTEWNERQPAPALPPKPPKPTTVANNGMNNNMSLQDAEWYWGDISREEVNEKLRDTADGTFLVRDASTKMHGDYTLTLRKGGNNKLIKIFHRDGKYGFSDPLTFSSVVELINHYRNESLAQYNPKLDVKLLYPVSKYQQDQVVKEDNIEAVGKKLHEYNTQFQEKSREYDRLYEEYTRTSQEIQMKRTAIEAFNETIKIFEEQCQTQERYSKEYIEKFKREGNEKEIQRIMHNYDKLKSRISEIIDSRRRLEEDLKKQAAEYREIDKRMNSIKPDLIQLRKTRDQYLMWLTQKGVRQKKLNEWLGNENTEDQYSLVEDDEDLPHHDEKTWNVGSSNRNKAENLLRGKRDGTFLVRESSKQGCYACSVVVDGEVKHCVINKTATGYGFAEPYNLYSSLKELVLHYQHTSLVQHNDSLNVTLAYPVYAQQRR
# T1 sequence (P42336 whole entry): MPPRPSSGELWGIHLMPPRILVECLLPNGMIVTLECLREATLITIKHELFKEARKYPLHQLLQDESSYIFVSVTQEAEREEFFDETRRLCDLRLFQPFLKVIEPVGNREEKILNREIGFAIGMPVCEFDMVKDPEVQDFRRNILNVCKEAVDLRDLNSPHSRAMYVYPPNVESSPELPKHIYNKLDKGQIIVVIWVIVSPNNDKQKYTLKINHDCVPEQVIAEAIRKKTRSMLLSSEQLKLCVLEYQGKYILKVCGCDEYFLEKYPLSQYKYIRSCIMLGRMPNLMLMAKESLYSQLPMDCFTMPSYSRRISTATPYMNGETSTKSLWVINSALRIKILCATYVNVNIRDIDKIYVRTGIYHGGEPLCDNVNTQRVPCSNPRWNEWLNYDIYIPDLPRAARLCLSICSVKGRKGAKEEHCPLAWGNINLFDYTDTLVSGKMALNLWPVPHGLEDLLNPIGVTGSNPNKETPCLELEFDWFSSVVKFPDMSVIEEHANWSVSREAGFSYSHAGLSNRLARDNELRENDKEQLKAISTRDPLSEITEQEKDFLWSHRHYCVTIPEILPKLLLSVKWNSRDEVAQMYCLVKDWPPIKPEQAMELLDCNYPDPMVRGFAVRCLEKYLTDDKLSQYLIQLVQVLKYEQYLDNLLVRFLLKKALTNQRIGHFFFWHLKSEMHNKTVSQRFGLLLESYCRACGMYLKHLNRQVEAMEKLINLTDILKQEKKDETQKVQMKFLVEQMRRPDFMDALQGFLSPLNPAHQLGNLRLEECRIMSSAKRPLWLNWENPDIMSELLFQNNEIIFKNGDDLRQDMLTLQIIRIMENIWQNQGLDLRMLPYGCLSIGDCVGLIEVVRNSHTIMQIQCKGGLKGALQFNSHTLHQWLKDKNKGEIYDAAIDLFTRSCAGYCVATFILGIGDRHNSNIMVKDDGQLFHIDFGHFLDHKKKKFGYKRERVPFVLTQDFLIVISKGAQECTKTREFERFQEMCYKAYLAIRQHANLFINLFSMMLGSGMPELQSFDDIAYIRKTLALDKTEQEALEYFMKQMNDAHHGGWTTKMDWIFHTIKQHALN
# T1 sequence (P27986 whole entry partner): as the sequence (P27986 whole entry partner) above
# T3 sequence (P42338 whole entry): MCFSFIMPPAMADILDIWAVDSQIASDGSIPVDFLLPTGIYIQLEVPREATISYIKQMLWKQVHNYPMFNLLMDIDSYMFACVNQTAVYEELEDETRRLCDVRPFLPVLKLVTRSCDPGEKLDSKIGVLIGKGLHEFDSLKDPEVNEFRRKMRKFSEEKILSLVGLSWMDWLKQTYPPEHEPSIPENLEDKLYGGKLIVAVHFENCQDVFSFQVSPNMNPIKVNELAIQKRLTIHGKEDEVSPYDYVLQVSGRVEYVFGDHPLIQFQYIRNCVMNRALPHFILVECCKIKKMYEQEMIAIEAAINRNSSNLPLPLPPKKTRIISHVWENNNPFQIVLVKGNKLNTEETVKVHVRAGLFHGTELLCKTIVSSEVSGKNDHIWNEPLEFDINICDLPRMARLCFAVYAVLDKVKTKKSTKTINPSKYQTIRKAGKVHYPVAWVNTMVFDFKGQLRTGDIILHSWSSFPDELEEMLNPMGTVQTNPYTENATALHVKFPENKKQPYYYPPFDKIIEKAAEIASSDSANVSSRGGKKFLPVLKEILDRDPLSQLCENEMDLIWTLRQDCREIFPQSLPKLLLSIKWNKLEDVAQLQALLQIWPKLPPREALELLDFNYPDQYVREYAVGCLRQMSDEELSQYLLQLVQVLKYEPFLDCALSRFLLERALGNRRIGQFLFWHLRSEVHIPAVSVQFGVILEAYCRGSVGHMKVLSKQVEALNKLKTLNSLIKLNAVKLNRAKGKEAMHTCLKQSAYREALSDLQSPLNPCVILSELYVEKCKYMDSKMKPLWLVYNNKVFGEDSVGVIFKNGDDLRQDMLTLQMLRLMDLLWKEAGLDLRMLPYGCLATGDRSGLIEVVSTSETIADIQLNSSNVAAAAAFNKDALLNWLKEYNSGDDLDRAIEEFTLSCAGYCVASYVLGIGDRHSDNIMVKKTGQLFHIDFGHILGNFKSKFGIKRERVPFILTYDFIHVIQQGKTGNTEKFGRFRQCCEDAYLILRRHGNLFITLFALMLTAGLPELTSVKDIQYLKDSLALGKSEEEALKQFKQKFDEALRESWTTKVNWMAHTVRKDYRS
# T3 sequence (P27986 whole entry partner): as the sequence (P27986 whole entry partner) above
# T2 sequence (P48736 whole entry): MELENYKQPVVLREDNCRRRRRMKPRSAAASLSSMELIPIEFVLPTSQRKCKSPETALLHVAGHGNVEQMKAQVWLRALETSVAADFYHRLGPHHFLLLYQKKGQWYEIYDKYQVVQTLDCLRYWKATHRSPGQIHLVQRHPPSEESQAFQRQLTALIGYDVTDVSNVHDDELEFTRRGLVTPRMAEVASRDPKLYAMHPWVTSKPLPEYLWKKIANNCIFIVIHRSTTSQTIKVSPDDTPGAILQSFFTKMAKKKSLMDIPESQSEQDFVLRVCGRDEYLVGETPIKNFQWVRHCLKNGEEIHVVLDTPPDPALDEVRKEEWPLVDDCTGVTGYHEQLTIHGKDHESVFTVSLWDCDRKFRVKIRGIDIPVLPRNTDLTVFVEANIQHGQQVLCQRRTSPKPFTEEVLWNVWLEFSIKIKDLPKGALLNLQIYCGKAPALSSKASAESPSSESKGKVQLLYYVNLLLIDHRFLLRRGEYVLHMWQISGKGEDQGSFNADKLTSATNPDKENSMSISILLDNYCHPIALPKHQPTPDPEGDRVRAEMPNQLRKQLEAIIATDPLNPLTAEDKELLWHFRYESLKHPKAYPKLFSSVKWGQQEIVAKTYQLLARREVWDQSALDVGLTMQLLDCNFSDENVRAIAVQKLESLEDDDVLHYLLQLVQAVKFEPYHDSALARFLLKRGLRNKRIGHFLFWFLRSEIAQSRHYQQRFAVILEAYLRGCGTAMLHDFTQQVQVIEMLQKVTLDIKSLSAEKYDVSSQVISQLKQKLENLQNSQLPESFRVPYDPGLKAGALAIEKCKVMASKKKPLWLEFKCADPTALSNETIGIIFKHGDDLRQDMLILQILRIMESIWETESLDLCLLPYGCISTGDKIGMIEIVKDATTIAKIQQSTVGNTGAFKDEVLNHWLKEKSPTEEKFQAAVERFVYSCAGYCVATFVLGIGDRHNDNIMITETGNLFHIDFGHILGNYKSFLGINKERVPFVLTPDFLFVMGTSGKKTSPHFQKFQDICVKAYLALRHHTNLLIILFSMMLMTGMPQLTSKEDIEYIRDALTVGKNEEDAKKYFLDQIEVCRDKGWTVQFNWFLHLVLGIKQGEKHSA
"IC50 [2, 8] [nM]",IC50 [3] [nM],IC50 [4] [nM],IC50 [5] [nM],"IC50 [2, 9] [nM]",IC50 [6] [nM],IC50 [7] [nM],SMILES,IC50 [1] [nM]
280,,,,,,,"Nc1cc(C(F)(F)F)c(-c2cc(C3(C(=O)N4CCOCC4)CC3)nc(N3CCOCC3)n2)cn1 [Compound S-3, (1-(6-(6-amino-4-(trifluoromethyl)pyridin-3-yl)-2-morpholinopyrimidin-4-yl)cyclopropyl)(morpholino)ketone]",> 10000
,112,129,164,16,,,C[C@H]1COCCN1c1nc(-c2cnc(N)cc2C(F)(F)F)cc(C2(S(C)(=O)=O)CC2)n1 [Compound S-6],1000 to 3000
,267,278,,13,1120,,"CN(C1(c2cc(-c3cnc(N)cc3C(F)(F)F)nc(N3CCOCC3)n2)CC1)S(C)(=O)=O [Compound S-14, N-(1-(6-(6-amino-4-(trifluoromethyl)pyridin-3-yl)-2-morpholinopyrimidin-4-yl)cyclopropyl)-N-methylmethanesulfonamide]",1000 to 3000
,,,2120,55,1540,491,CC(C)S(=O)(=O)C(C)(C)c1cc(-c2cnc(N)cc2C(F)(F)F)nc(N2CCOCC2)n1 [Compound S-22],1000 to 3000
,,305,291,10,376,85,"CS(=O)(=O)NC1(c2cc(-c3cnc(N)cc3C(F)(F)F)nc(N3CCOCC3)n2)CC1 [Compound S-24, N-(1-(6-(6-amino-4-(trifluoromethyl)pyridin-3-yl)-2-morpholinopyrimidin-4-yl)cyclopropyl)methanesulfon amide]",5000 to 10000
,,324,1930,26,217,67,Nc1cc(C(F)(F)F)c(-c2cc(C3(S(=O)(=O)c4ccccc4)CC3)nc(N3CCOCC3)n2)cn1 [Compound S-25],1000 to 3000
390,,,,,,,"CC(=O)NC1(c2cc(-c3cnc(N)cc3C(F)(F)F)nc(N3CCOCC3)n2)CC1 [Compound S-26, N-(1-(6-(6-amino-4-(trifluoromethyl)pyridin-3-yl)-2-morpholinopyrimidin-4-yl)cyclopropyl)acetamide]",> 10000
,,,256,,1740,612,CCS(=O)(=O)C(C)(C)c1cc(-c2cnc(N)cc2C(F)(F)F)nc(N2CCOCC2)n1 [Compound S-29],1000 to 3000
858,,,,,,,"CS(=O)(=O)C1(c2cc(-c3cnc(N)c(C(F)(F)F)c3)nc(N3CCOCC3)n2)CC1 [Compound S-44, 5-(6-(1-(methylsulfonyl)cyclopropyl)-2-morpholinopyrimidin-4-yl)-3-(trifluoromethyl)pyridin-2-amine]",1000 to 3000
,,,914,18,2780,336,"CS(=O)(=O)C(F)c1cc(-c2cnc(N)cc2C(F)(F)F)nc(N2CCOCC2)n1 (stereo not shown) [Compound S-52, 5-(6-(fluoro(methylsulfonyl)methyl)-2-morpholinopyrimidin-4-yl)-4-(trifluoromethyl)pyridin-2-amine]",3000 to 5000
,408,,287,33,1550,516,CS(=O)(=O)C(F)(F)c1cc(-c2cnc(N)cc2C(F)(F)F)nc(N2CCOCC2)n1 [Compound S-53],1000 to 3000
,286,242,236,18,284,62,"Nc1cc(C(F)(F)F)c(-c2cc(C3(S(=O)(=O)c4cccc(F)c4)CC3)nc(N3CCOCC3)n2)cn1 [Compound S-57, 5-(6-(1-(3-fluorophenylsulfonyl)cyclopropyl)-2-morpholinopyrimidin-4-yl)-4-(trifluoromethyl)pyridin-2-amine]",1000 to 3000
